The record followed here is ChEMBL document CHEMBL5465560, “Selectivity Literature for EUbOPEN Chemogenomic Library” (2024).

SMILES strings stand for the structures.

For experiment [1], the target named is Angiopoietin-1 receptor (Homo sapiens) (UniProt Q02763). As to the kind of experiment: Selectivity interaction (ProQinase) EUB0000171b TEK. As to conditions: at 5 µM.
In experiment [2] the target is Dual specificity protein kinase CLK2 (Homo sapiens, UniProt P49760). Put plainly: Selectivity interaction (ProQinase) EUB0000171b CLK2.
Chain of Dual specificity protein kinase CLK2 (P49760 whole entry, looked up): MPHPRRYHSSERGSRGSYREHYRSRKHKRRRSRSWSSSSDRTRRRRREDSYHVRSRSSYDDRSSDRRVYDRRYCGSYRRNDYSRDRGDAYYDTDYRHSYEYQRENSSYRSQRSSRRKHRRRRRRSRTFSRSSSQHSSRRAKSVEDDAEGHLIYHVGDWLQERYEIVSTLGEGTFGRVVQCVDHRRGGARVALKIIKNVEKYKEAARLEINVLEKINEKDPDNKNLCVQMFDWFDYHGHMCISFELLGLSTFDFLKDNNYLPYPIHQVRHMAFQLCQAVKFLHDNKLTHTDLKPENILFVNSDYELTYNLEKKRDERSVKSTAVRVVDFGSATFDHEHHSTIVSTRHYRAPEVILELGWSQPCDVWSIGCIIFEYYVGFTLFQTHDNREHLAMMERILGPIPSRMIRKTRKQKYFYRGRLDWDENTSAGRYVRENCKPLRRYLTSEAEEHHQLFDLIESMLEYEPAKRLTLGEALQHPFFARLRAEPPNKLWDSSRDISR
For experiment [3], the target named is cAMP-dependent protein kinase catalytic subunit alpha (Homo sapiens, UniProt P17612). Put plainly: Selectivity interaction (Ambit KINOMEscan and KiNATiv profiling in Jurkat cells) EUB0000090b PRKACA. Type of experiment: cell-based. As to conditions: at 1 µM.
The target in experiment [4] is Casein kinase I isoform gamma-1 (Homo sapiens) (UniProt Q9HCP0). As to the kind of experiment: Selectivity interaction (KinomeScan (DiscoverX)) EUB0001079a CSNK1G1. As to conditions: at 1 µM.
Chain of Casein kinase I isoform gamma-1 (Homo sapiens) (Q9HCP0 whole entry, looked up, canonical isoform): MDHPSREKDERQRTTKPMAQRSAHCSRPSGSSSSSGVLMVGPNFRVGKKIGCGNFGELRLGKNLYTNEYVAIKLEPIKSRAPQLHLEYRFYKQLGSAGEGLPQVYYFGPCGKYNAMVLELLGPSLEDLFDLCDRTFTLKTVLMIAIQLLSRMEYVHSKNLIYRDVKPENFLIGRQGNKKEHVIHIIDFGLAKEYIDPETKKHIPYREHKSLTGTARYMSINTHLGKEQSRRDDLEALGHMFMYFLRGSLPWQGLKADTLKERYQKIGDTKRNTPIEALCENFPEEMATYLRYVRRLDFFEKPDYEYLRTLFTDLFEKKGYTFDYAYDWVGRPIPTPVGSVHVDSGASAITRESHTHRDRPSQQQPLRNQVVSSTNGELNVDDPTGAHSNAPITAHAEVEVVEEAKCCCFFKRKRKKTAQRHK
Experiment [5] relates to Epidermal growth factor receptor (Homo sapiens), P00533 [UNDEFINED MUTATION]. Put plainly: Selectivity interaction (KinomeScan (DiscoverX)) EUB0000092b EGFR. As to conditions: at 10 µM.
Experiment [6] has as its target T1, Ephrin type-B receptor 6 (Homo sapiens) (UniProt O15197).
T1 sequence (whole entry): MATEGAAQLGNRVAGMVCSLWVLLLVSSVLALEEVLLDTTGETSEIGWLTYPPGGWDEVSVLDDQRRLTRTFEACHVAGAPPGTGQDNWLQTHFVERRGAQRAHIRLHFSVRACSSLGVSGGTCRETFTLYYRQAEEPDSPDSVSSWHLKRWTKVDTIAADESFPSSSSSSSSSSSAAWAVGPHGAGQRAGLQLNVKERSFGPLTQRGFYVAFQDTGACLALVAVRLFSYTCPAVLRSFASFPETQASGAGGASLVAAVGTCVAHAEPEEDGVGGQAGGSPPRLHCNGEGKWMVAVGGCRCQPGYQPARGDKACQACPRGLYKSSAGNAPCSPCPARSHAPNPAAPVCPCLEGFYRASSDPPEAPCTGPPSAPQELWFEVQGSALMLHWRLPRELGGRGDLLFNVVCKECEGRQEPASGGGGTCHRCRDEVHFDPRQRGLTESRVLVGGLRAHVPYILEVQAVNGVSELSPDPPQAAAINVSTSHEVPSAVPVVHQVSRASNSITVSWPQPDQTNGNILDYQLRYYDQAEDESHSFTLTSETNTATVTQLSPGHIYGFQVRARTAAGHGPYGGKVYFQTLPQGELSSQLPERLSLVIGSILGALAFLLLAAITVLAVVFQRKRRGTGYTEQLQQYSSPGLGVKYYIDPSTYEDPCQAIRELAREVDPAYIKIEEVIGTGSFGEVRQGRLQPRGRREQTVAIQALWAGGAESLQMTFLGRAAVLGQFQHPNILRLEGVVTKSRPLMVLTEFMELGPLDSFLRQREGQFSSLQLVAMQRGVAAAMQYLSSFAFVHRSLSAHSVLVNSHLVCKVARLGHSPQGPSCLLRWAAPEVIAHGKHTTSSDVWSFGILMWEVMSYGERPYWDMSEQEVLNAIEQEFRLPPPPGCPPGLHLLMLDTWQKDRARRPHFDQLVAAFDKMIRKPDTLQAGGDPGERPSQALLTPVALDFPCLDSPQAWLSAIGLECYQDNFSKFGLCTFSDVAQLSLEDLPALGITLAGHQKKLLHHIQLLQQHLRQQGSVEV
Put plainly: Selectivity interaction (KinomeScan (DiscoverX)) EUB0001049a EPHB6. As to conditions: at 1 µM.

For experiment [7], the target named is T2, Dual specificity tyrosine-phosphorylation-regulated kinase 3 (Homo sapiens) (UniProt O43781).
T2 sequence (whole entry): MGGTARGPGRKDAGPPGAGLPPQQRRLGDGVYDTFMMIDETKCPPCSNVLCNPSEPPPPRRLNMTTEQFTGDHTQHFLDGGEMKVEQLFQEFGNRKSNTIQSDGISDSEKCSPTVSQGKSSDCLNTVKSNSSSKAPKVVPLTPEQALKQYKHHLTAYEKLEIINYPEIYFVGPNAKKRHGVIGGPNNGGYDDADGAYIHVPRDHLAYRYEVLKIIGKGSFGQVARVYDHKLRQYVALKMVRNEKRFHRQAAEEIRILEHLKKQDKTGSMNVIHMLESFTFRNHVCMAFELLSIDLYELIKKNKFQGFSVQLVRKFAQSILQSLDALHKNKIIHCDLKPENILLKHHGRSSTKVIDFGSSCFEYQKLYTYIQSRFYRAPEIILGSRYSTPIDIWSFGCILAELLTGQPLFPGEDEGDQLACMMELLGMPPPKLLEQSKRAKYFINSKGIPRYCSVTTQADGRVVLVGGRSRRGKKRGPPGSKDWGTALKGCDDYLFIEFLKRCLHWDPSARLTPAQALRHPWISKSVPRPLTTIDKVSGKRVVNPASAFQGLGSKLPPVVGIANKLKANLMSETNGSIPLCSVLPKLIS
As to the kind of experiment: Selectivity interaction (Kinase panel (Z-LYTE Assay)) EUB0001632a DYRK3. As to conditions: at 10 µM.

Experiment [8] addresses Serine/threonine-protein kinase 38 (Homo sapiens) (UniProt Q15208). As to the kind of experiment: Selectivity interaction (KinomeScan (DiscoverX)) EUB0000607a STK38. The following applies: at 10 µM.
The test system of experiment [9] is Mast/stem cell growth factor receptor Kit (Homo sapiens), P10721 [V559D,T670I]. Put plainly: (§1) Selectivity interaction (KinomeScan (DiscoverX)) EUB0001619a KIT. As to conditions: at 1 µM.
Chain of Mast/stem cell growth factor receptor Kit (Homo sapiens), P10721 [V559D,T670I] (P10721 whole entry V559D/T670I): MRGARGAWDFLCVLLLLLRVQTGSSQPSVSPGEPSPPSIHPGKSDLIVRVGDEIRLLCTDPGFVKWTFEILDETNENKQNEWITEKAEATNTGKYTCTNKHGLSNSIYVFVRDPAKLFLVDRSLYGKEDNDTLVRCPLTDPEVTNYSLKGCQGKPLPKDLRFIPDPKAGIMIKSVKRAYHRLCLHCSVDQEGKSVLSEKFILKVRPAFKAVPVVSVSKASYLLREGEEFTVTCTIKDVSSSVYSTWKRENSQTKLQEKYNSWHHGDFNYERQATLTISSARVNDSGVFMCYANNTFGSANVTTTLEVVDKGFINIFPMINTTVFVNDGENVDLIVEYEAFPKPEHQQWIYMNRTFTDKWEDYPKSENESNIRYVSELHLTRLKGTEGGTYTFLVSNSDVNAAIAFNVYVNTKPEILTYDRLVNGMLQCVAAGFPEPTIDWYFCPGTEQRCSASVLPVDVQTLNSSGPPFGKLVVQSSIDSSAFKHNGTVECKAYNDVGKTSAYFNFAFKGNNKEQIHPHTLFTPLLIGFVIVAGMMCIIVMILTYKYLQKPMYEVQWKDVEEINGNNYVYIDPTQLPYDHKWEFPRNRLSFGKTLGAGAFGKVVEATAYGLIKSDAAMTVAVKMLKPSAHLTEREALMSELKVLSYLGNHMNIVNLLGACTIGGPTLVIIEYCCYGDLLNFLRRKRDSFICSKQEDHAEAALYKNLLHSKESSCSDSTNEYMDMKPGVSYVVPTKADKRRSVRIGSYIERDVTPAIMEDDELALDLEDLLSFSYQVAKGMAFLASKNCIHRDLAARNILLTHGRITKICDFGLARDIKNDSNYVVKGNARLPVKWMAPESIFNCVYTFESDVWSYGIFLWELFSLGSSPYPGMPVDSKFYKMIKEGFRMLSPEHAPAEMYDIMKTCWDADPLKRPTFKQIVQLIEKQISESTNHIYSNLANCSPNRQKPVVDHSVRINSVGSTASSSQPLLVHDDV
In experiment [10] the test system is Mast/stem cell growth factor receptor Kit (Homo sapiens), P10721 [D816H]. The experiment is described as §1. The following applies: at 1 µM.
The test system of experiment [11] is Mast/stem cell growth factor receptor Kit (Homo sapiens), P10721 [V559D]. Described as §1. As to conditions: at 1 µM.
The subject of experiment [12] is Mast/stem cell growth factor receptor Kit (Homo sapiens), P10721 [D816V]. The description is as §1. As to conditions: at 1 µM.
For experiment [13], the system named is Mast/stem cell growth factor receptor Kit (Homo sapiens), P10721 [V559D,V654A]. The experiment is described as §1. As to conditions: at 1 µM.
Chain of Mast/stem cell growth factor receptor Kit (Homo sapiens), P10721 [V559D,V654A] (P10721 whole entry V559D/V654A): as the sequence (P10721 whole entry V559D/T670I) above, with V654A, I670T counted along it
The target of experiment [14] is Mast/stem cell growth factor receptor Kit (Homo sapiens, UniProt P10721). The experiment is described as §1. The following applies: at 1 µM.
Experiment [15] has as its system Mast/stem cell growth factor receptor Kit (Homo sapiens), P10721 [L576P]. The experiment is described as §1. As to conditions: at 1 µM.
In experiment [16] the test system is Mast/stem cell growth factor receptor Kit (Homo sapiens), P10721 [A829P]. Described as §1. As to conditions: at 1 µM.
For experiment [17], the target named is Mitogen-activated protein kinase kinase kinase kinase 5 (Homo sapiens) (UniProt Q9Y4K4). Put plainly: Selectivity interaction (KinomeScan (DiscoverX)) EUB0000618a MAP4K5. The following applies: at 10 µM.

Chain of Mast/stem cell growth factor receptor Kit (Homo sapiens), P10721 [L576P] (P10721 whole entry L576P): as the sequence (P10721 whole entry V559D/T670I) above, with D559V, L576P, I670T counted along it
Chain of Serine/threonine-protein kinase 38 (Homo sapiens) (Q15208 2-465 limits assumed): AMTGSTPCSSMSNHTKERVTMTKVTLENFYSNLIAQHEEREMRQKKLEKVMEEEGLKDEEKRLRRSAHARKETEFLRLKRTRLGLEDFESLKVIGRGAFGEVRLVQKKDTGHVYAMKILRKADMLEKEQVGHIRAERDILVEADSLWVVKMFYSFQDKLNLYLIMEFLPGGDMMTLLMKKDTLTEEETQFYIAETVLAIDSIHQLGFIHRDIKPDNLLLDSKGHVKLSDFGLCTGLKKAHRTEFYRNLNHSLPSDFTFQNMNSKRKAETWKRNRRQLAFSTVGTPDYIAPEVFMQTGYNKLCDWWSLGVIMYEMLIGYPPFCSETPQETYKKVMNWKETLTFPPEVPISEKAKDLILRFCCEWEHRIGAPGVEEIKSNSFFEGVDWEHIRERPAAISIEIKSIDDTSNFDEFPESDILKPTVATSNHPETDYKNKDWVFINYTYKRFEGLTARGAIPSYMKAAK

On to `C=CC(=O)Nc1cccc(C(=O)Nc2ccc(Nc3cc(-c4[nH]c(SC)nc4C)ccn3)cc2)c1`, for which the % of control turned out to be 96% in experiment [1], 81% in [2] (at 1 µM) and 51% in experiment [2] (at 5 µM).
Regarding `CN(C)C/C=C/C(=O)Nc1ccc(C(=O)N2CCCC(Nc3ncc(Cl)c(-c4c[nH]c5ccccc45)n3)C2)cc1` (stereo not drawn), the % of control in experiment [3] amounted to 100%.
In [4], `Nc1cnc(N2CCc3cc(S(=O)(=O)Nc4c(F)cc(Cl)cc4F)cc(N4CCCC4=O)c32)nc1` [TP-020n] displayed a % of control of 97%.
With `CCC(=O)N1CCN(c2ccc(-n3c(=O)ccc4cnc5ccc(-c6cnc7ccccc7c6)cc5c43)cc2C(F)(F)F)CC1`, the % of control in experiment [5] was found to be 84%.
The molecule `COc1cc(Nc2nc(C)cc(-c3cnn4nc(OC)ccc34)n2)cc(C(F)(F)F)c1` yielded a % of control in experiment [6] of 78%.
In experiment [7], `Cn1cc(-n2cnc3c(NCc4nc5cc(Cl)c(Cl)cc5[nH]4)nc(N4CCOCC4)nc32)cn1` came in with a % of control of 10.6%.
In experiment [8], `CNC(=O)Nc1ccc(-c2nc(N3CC4CCC(C3)O4)c3cnn(C4CCC5(CC4)OCCO5)c3n2)cc1` showed a % of control of 100%.
With `N#Cc1cccc(-c2c[nH]c3ncnc(N4CCOCC4)c23)c1`, the % of control in experiment [9] worked out at 100%; in experiment [10], 92%; in experiment [11], 100%; in [12], 99%; in [13], 72%; in [14], 100%. The results for the % of control in experiment [15] and in experiment [16] were 89% and 50%, respectively.
In [17], `O[C@H]1CC[C@H](Nc2ncc3nc(Nc4c(F)cc(F)cc4F)n([C@H]4CCOC4)c3n2)CC1` returned a % of control of 100%.
